{"source": "patent US20250025550A1", "about": "“ADJUVANT COMPOUNDS AND FORMULATIONS” (ADJUVANCE TECHNOLOGIES, INC., priority 2021, published 2025)", "key": {"CD-i mice": {"system": "CD-i mice", "assay": "TQL-1055 HP-β-CD dose ranging study: weight loss and survival", "details": "for Deaths (D 7) / Deaths (D 21): CD-1 mice, I.M.; for Deaths (D 7): post dose 1; for Deaths (D 21): post dose 2 (day 14)"}, "[1]": {"system": "mouse strains (C57BL/6J, BALB/cJ, CD-i)", "assay": "Tolerability (mortality) of soluble TQL-1055 formulations across three mouse strains", "type": "in vivo", "protocol": "The tolerability of soluble TQL-1055 formulations, including TQL-1055 FA (free acid) HP-β-CD and TQL-1055 ISKS (in situ potassium salt) HP-β-CD formulations, administered over a range of doses was examined across three mouse strains (C57BL/6J, BALB/cJ, CD-i). The following experimental groups were used. I.M. administration was performed.\nThe mortality rate 7 days after injection was observed.\nA Logrank (Mantel-Cox) test was performed to assess survival distributions of the foregoing groups."}, "[2]": {"system": "cancer patients; well (non-cancer) adult and child recipients", "details": "cited from earlier work"}, "[3]": {"details": "no antigen, HPβCD dose equivalent to group 4"}, "[4]": {"details": "with 0.1 μg PR8 HA, HPβCD dose equivalent to group 4"}}}
{"compound": "2-hydroxypropyl beta-cyclodextrin [HPβCD alone]", "values": [{"measurement": "Deaths (D 7)", "setting": "CD-i mice; [3]", "result": "0/10"}, {"measurement": "Deaths (D 7)", "setting": "CD-i mice; [4]", "result": "0/10"}, {"measurement": "Deaths (D 21)", "setting": "CD-i mice; [3]", "result": "0/10"}, {"measurement": "Deaths (D 21)", "setting": "CD-i mice; [4]", "result": "0/10"}, {"measurement": "Mortality (follow-on studies, text)", "setting": "CD-i mice; mice, TQL-1055 without HP-β-CD, or HP-β-CD without TQL-1055, any dose tested", "result": "did not result in mortality"}]}
{"compound": "CC1O[C@@H](OC2C(O)[C@@H](NC(=O)CCCCCCCCCCC(=O)O)C(CO)O[C@H]2OC(=O)[C@]23CCC(C)(C)CC2C2=CCC4C5(C)CC[C@H](O)[C@](C)(C=O)[C@@H]5CC[C@]4(C)[C@]2(C)CC3O)C(O)C(O)[C@H]1O[C@@H]1OC[C@@H](O)C(O)C1O", "note": "(stereo partly drawn) [TQL1055 FA]", "values": [{"measurement": "Deaths (D 7)", "setting": "CD-i mice; no antigen, 50 μg", "result": "0/10"}, {"measurement": "Deaths (D 7)", "setting": "CD-i mice; no antigen, 100 μg", "result": "0/10"}, {"measurement": "Deaths (D 7)", "setting": "CD-i mice; no antigen, 200 μg", "result": "0/10"}, {"measurement": "Deaths (D 7)", "setting": "CD-i mice; with 0.1 μg PR8 HA, 50 μg", "result": "0/10"}, {"measurement": "Deaths (D 7)", "setting": "CD-i mice; with 0.1 μg PR8 HA, 100 μg", "result": "0/10"}, {"measurement": "Deaths (D 7)", "setting": "CD-i mice; with 0.1 μg PR8 HA, 198.68 μg", "result": "0/10"}, {"measurement": "Deaths (D 21)", "setting": "CD-i mice; no antigen, 50 μg", "result": "0/10"}, {"measurement": "Deaths (D 21)", "setting": "CD-i mice; no antigen, 100 μg", "result": "0/10"}, {"measurement": "Deaths (D 21)", "setting": "CD-i mice; no antigen, 200 μg", "result": "0/10"}, {"measurement": "Deaths (D 21)", "setting": "CD-i mice; with 0.1 μg PR8 HA, 50 μg", "result": "0/10"}, {"measurement": "Deaths (D 21)", "setting": "CD-i mice; with 0.1 μg PR8 HA, 100 μg", "result": "0/10"}, {"measurement": "Deaths (D 21)", "setting": "CD-i mice; with 0.1 μg PR8 HA, 198.68 μg", "result": "0/10"}]}
{"compound": "QS-21", "values": [{"measurement": "Deaths", "setting": "[1]; BALB/cJ mice, 20 μg I.M., 7 days after injection", "result": "0/10"}, {"measurement": "Deaths", "setting": "[1]; BALB/cJ mice, 40 μg I.M., 7 days after injection", "result": "0/10"}, {"measurement": "Deaths", "setting": "[1]; BALB/cJ mice, 60 μg I.M., 7 days after injection", "result": "0/10"}, {"measurement": "Deaths", "setting": "[1]; BALB/cJ mice, 80 μg I.M., 7 days after injection", "result": "0/10"}, {"measurement": "Deaths", "setting": "[1]; BALB/cJ mice, 100 μg I.M., 7 days after injection", "result": "0/10"}, {"measurement": "Deaths", "setting": "[1]; C57BL/6J mice, 20 μg I.M., 7 days after injection", "result": "0/10"}, {"measurement": "Deaths", "setting": "[1]; C57BL/6J mice, 40 μg I.M., 7 days after injection", "result": "2/10"}, {"measurement": "Deaths", "setting": "[1]; C57BL/6J mice, 60 μg I.M., 7 days after injection", "result": "0/10"}, {"measurement": "Deaths", "setting": "[1]; C57BL/6J mice, 80 μg I.M., 7 days after injection", "result": "5/10"}, {"measurement": "Deaths", "setting": "[1]; C57BL/6J mice, 100 μg I.M., 7 days after injection", "result": "10/10"}, {"measurement": "Role of mouse strain in tolerability", "setting": "[1]; C57BL/6J, BALB/cJ, CD-1 compared", "result": "C57BL/6 mice appear to be more sensitive"}, {"measurement": "Deaths", "setting": "[1]; CD-1 mice, 20 μg I.M., 7 days after injection", "result": "0/10"}, {"measurement": "Deaths", "setting": "[1]; CD-1 mice, 40 μg I.M., 7 days after injection", "result": "0/10"}, {"measurement": "Deaths", "setting": "[1]; CD-1 mice, 60 μg I.M., 7 days after injection", "result": "0/10"}, {"measurement": "Deaths", "setting": "[1]; CD-1 mice, 80 μg I.M., 7 days after injection", "result": "0/10"}, {"measurement": "Deaths", "setting": "[1]; CD-1 mice, 100 μg I.M., 7 days after injection", "result": "0/10"}, {"measurement": "Mortality", "setting": "[1]; all three mouse strains, 20-100 μg I.M., 7 days after injection", "result": "at least some mice in the other groups (including QS-21) died"}, {"measurement": "tolerated dose", "setting": "[2]; cancer patients, above it significant local and systemic side effects arise", "result": "100 to 150", "unit": "µg"}, {"measurement": "highest practical tolerable dose", "setting": "[2]; well (non-cancer) adult and child recipients", "result": "25 to 50", "unit": "µg"}, {"measurement": "Deaths (D 7)", "setting": "CD-i mice; with 0.1 μg PR8 HA, 25 μg", "result": "0/10"}, {"measurement": "Deaths (D 7)", "setting": "CD-i mice; with 0.1 μg PR8 HA, 50 μg", "result": "0/10"}, {"measurement": "Deaths (D 7)", "setting": "CD-i mice; with 0.1 μg PR8 HA, 100 μg", "result": "2/10"}, {"measurement": "Deaths (D 21)", "setting": "CD-i mice; with 0.1 μg PR8 HA, 25 μg", "result": "0/10"}, {"measurement": "Deaths (D 21)", "setting": "CD-i mice; with 0.1 μg PR8 HA, 50 μg", "result": "0/10"}, {"measurement": "Deaths (D 21)", "setting": "CD-i mice; with 0.1 μg PR8 HA, 100 μg", "result": "0/8"}]}
